Key:
[1] = Permeability of compound across apical to basolateral side in dog wild type MDCK-MDR1 cells; assay type: ADME, cell-based, Canis lupus familiaris; details: read-out: permeability
[2] = Dissociation constant, pKa of the compound; assay type: physicochemical
[3] = Permeability of compound across basolateral to apical side in dog wild type MDCK cells; assay type: ADME, cell-based, Canis lupus familiaris; details: read-out: permeability
[4] = Permeability of compound across apical to basolateral side in dog wild type MDCK cells; assay type: ADME, cell-based, Canis lupus familiaris; details: read-out: permeability
[5] = Permeability of compound across basolateral to apical side in dog wild type MDCK-MDR1 cells; assay type: ADME, cell-based, Canis lupus familiaris; details: read-out: permeability
[6] = AUC (0 to 24 hrs) in Sprague-Dawley rat 1 mg/kg, iv measured at 0.083 to 24 hrs by LC-MS/MS analysis; assay type: ADME, organism-based; design: dose 1 mg/kg, time 0.083-24 hrs, route iv; details: in vivo
[7] = Volume of distribution at steady state in Sprague-Dawley rat 3 mg/kg, po or 1 mg/kg, iv measured at 0.083 to 24 hrs by LC-MS/MS analysis; assay type: ADME, organism-based; details: in vivo, time 0.083-24 hrs
[8] = Clearance in Sprague-Dawley rat 1 mg/kg, iv measured at 0.083 to 24 hrs by LC-MS/MS analysis; assay type: ADME, organism-based; details: in vivo, time 0.083-24 hrs
[9] = species on record: Homo sapiens; assay: Binding affinity to human SHP2 E76K mutant assessed as change in enthalpy by isothermal titration calorimetry assay
[10] = species on record: Homo sapiens; assay: Binding affinity to human SHP2 E76K mutant assessed as change in entropy by isothermal titration calorimetry assay
[11] = Half life in Sprague-Dawley rat 1 mg/kg, iv measured at 0.083 to 24 hrs by LC-MS/MS analysis; assay type: ADME, organism-based; details: in vivo, time 0.083-24 hrs
[12] = Oral bioavailability in Sprague-Dawley rat 3 mg/kg, iv measured at 0.083 to 24 hrs by LC-MS/MS analysis; assay type: ADME, organism-based; details: in vivo, time 0.083-24 hrs
[13] = Volume of distribution at steady state in Beagle dog measured at 0.083 to 24 hrs by LC-MS/MS analysis; assay type: ADME, Canis lupus familiaris; details: in vivo, time 0.083-24 hrs, read-out: Vdss
[14] = Half life in iv dosed Sprague-Dawley rat measured at 0.083 to 24 hrs by LC-MS/MS analysis; assay type: ADME, organism-based; details: in vivo, time 0.083-24 hrs
[15] = Metabolic stability in mouse microsome assessed as intrinsic clearance incubated for 45 mins in presence of NADPH regenerating system by LC-MS/MS analysis; assay type: ADME; details: microsomes, read-out: CLH
[16] = Permeability of compound across apical to basolateral side in dog MDCK-MDR1 cells; assay type: ADME, cell-based, Canis lupus familiaris
[17] = Clearance in iv dosed Cynomolgus monkey measured at 0.083 to 24 hrs by LC-MS/MS analysis; assay type: ADME, organism-based, Macaca fascicularis; details: in vivo, time 0.083-24 hrs
[18] = Oral bioavailability in […] Sprague-Dawley rat measured at 0.083 to 24 hrs by LC-MS/MS analysis; assay type: ADME, organism-based; details: in vivo, time 0.083-24 hrs
[19] = Half life in iv dosed CD-1 mouse measured at 0.083 to 24 hrs by LC-MS/MS analysis; assay type: ADME, organism-based; details: in vivo, time 0.083-24 hrs
[20] = Permeability of compound across basolateral to apical side in dog MDCK-MDR1 cells; assay type: ADME, cell-based, Canis lupus familiaris
[21] = Metabolic stability in human microsome assessed as intrinsic clearance incubated for 45 mins in presence of NADPH regenerating system by LC-MS/MS analysis; assay type: ADME; details: microsomes
[22] = Oral bioavailability in Cynomolgus monkey measured at 0.083 to 24 hrs by LC-MS/MS analysis; assay type: ADME, organism-based, Macaca fascicularis; details: in vivo, time 0.083-24 hrs
[23] = Half life in iv dosed Cynomolgus monkey measured at 0.083 to 24 hrs by LC-MS/MS analysis; assay type: ADME, organism-based, Macaca fascicularis; details: in vivo, time 0.083-24 hrs
[24] = Oral bioavailability in CD-1 mouse measured at 0.083 to 24 hrs by LC-MS/MS analysis; assay type: ADME, organism-based; details: in vivo, time 0.083-24 hrs
[25] = Metabolic stability in monkey microsome assessed as intrinsic clearance incubated for 45 mins in presence of NADPH regenerating system by LC-MS/MS analysis; assay type: ADME, Macaca mulatta; details: rhesus monkey, microsomes, read-out: CLH
[26] = Clearance in iv dosed Sprague-Dawley rat measured at 0.083 to 24 hrs by LC-MS/MS analysis; assay type: ADME, organism-based; details: in vivo, time 0.083-24 hrs
[27] = Clearance in iv dosed Beagle dog measured at 0.083 to 24 hrs by LC-MS/MS analysis; assay type: ADME, organism-based, Canis lupus familiaris; details: in vivo, time 0.083-24 hrs
[28] = Volume of distribution at steady state in CD-1 mouse measured at 0.083 to 24 hrs by LC-MS/MS analysis; assay type: ADME; details: in vivo, time 0.083-24 hrs, read-out: Vdss
[29] = Half life in iv dosed Beagle dog measured at 0.083 to 24 hrs by LC-MS/MS analysis; assay type: ADME, organism-based, Canis lupus familiaris; details: in vivo, time 0.083-24 hrs
[30] = Volume of distribution at steady state in Cynomolgus monkey measured at 0.083 to 24 hrs by LC-MS/MS analysis; assay type: ADME, Macaca fascicularis; details: in vivo, time 0.083-24 hrs, read-out: Vdss
[31] = Volume of distribution at steady state in Sprague-Dawley rat measured at 0.083 to 24 hrs by LC-MS/MS analysis; assay type: ADME; details: in vivo, time 0.083-24 hrs, read-out: Vdss
[32] = Metabolic stability in Beagle dog microsome assessed as intrinsic clearance incubated for 45 mins in presence of NADPH regenerating system by LC-MS/MS analysis; assay type: ADME, Canis lupus familiaris; details: microsomes, read-out: CLH
[33] = Metabolic stability in rat microsome assessed as intrinsic clearance incubated for 45 mins in presence of NADPH regenerating system by LC-MS/MS analysis; assay type: ADME; details: microsomes
[34] = Oral bioavailability in Beagle dog measured at 0.083 to 24 hrs by LC-MS/MS analysis; assay type: ADME, organism-based, Canis lupus familiaris; details: in vivo, time 0.083-24 hrs
[35] = Clearance in iv dosed CD-1 mouse measured at 0.083 to 24 hrs by LC-MS/MS analysis; assay type: ADME, organism-based; details: in vivo, time 0.083-24 hrs
[36] = Volume of distribution at steady state in Sprague-Dawley rat 3 mg/kg, po or 3 mg/kg, iv measured at 0.083 to 24 hrs by LC-MS/MS analysis; assay type: ADME, organism-based; details: in vivo, time 0.083-24 hrs
[37] = Oral bioavailability in Sprague-Dawley rat 0.3 mg/kg measured at 0.083 to 24 hrs by LC-MS/MS analysis; assay type: ADME, organism-based; details: in vivo, time 0.083-24 hrs
[38] = Clearance in Sprague-Dawley rat 0.3 mg/kg, iv measured at 0.083 to 24 hrs by LC-MS/MS analysis; assay type: ADME, organism-based; details: in vivo, time 0.083-24 hrs
[39] = Half life in Sprague-Dawley rat 0.3 mg/kg, iv measured at 0.083 to 24 hrs by LC-MS/MS analysis; assay type: ADME, organism-based; details: in vivo, time 0.083-24 hrs
[40] = Oral bioavailability in Sprague-Dawley rat 3 mg/kg measured at 0.083 to 24 hrs by LC-MS/MS analysis; assay type: ADME, organism-based; details: in vivo, time 0.083-24 hrs
[41] = AUC (0 to 24 hrs) in Sprague-Dawley rat 0.3 mg/kg, iv measured at 0.083 to 24 hrs by LC-MS/MS analysis; assay type: ADME, organism-based; design: time lower 0.083 hrs, dose 0.3 mg/kg, time upper 24 hrs, route iv; details: in vivo

`CCNc1nccc(-c2n[nH]c3nc(N4CCC5(CC4)CO[C@@H](C)[C@H]5N)cnc23)c1Cl` gave a Papp A→B [1] of 8.6 ×10⁻⁶ cm/s, a pKa [2] of 9.3 and a Papp B→A [3] of 25 ×10⁻⁶ cm/s. It also gave a Papp A→B [4] of 12.4 ×10⁻⁶ cm/s and a Papp B→A [5] of 40.7 ×10⁻⁶ cm/s.

With `CC1(N)CCN(c2cnc3c(-c4cccc(Cl)c4Cl)n[nH]c3n2)CC1` the Papp A→B [1] was 6 ×10⁻⁶ cm/s, the pKa [2] was 10.4 and the AUC(0-t) [6] was 2 µM·h. The Vdss [7] was 21 L/kg, the CL [8] was 70% and the Papp B→A [3] was 6.8 ×10⁻⁶ cm/s. The deltaH [9] was -3.67 kcal/mol, the -TdeltaS [10] was -5.44 kcal/mol and the half-life [11] was 13 h. It also gave a bioavailability [12] of 70%, a Papp A→B [4] of 6 ×10⁻⁶ cm/s and a Papp B→A [5] of 8.5 ×10⁻⁶ cm/s.

With `Cc1nc(N2CCC3(CC2)CO[C@@H](C)[C@H]3N)cc(=O)n1-c1cccc(Cl)c1Cl` (stereo in doubt) the Vd [13] was 2.9 L/kg, the half-life [14] was 5.9 h and the CLint scaled [15] was 28 mL/min/kg. For the same compound, the Papp A→B [16] was 12 ×10⁻⁶ cm/s, the clearance [17] was 4.2 mL/min/kg and the bioavailability [18] was 80%. The half-life [19] was 3.5 h, the Papp B→A [20] was 32 ×10⁻⁶ cm/s and the CLint scaled ([21]; read-out: CL) was 0.7 mL/min/kg. The bioavailability [22] was 89%, the half-life [23] was 9.4 h and the bioavailability [24] was 99%. It also gave a CLint scaled [25] of 21 mL/min/kg, a clearance [26] of 5.8 mL/min/kg and a clearance [27] of 4.2 mL/min/kg. For the same compound, the Vd [28] was 2.6 L/kg, the half-life [29] was 8.6 h and the Vd [30] was 3.4 L/kg. For the same compound, the Vd [31] was 2.5 L/kg, the CLint scaled [32] was 17 mL/min/kg and the CLint scaled [33] was 0.8 mL/min/kg. The bioavailability [34] was 106% and the clearance [35] was 9.2 mL/min/kg.

Work on `C[C@@H]1OCC2(CCN(c3cnc4c(-c5cccc(Cl)c5Cl)n[nH]c4n3)CC2)[C@@H]1N` yielded a Papp A→B [1] of 6.4 ×10⁻⁶ cm/s, a Papp B→A [3] of 10 ×10⁻⁶ cm/s and a Papp A→B [4] of 9 ×10⁻⁶ cm/s. It also gave a Papp B→A [5] of 10.2 ×10⁻⁶ cm/s.

Work on `N[C@@H]1CCCC12CCN(c1nc3[nH]nc(-c4cccc(Cl)c4Cl)c3c(=O)[nH]1)CC2` yielded a Papp A→B [1] of 0.3 ×10⁻⁶ cm/s, a Vdss [36] of 2.2 L/kg and a CLint scaled ([21]; read-out: CL) of 2 mL/min/kg. For the same compound, the bioavailability [37] was 3%, the Papp B→A [3] was 3.64 ×10⁻⁶ cm/s and the clearance [38] was 12 mL/min/kg. It also gave a half-life [39] of 2.7 h, a Papp A→B [4] of 0.27 ×10⁻⁶ cm/s and a CLint scaled [33] of 26 mL/min/kg. For the same compound, the Papp B→A [5] was 9.5 ×10⁻⁶ cm/s.

With `CNc1nccc(-c2n[nH]c3nc(N4CCC(C)(N)CC4)cnc23)c1Cl` the Papp A→B [1] was 2.1 ×10⁻⁶ cm/s, the pKa [2] was 10.4 and the Vdss [36] was 12.9 L/kg. It also gave a bioavailability [40] of 38%, an AUC(0-t) [41] of 0.314 µM·h and a Papp B→A [3] of 8 ×10⁻⁶ cm/s. For the same compound, the clearance [38] was 37 mL/min/kg, the half-life [39] was 4.8 h and the Papp A→B [4] was 4.2 ×10⁻⁶ cm/s. It also gave a Papp B→A [5] of 28 ×10⁻⁶ cm/s.

`Cc1nc(N2CCC3(CC2)CO[C@@H](C)[C@H]3N)c(Cl)c(=O)n1-c1cccc(Cl)c1Cl` showed a Vd [13] of 3.5 L/kg, a half-life [14] of 1.8 h and a CLint scaled [15] of 37 mL/min/kg. The Papp A→B [16] was 18 ×10⁻⁶ cm/s, the clearance [17] was 8.3 mL/min/kg and the bioavailability [18] was 38%. It also gave a half-life [19] of 6 h, a Papp B→A [20] of 19 ×10⁻⁶ cm/s and a CLint scaled ([21]; read-out: CLH) of 10 mL/min/kg. The bioavailability [22] was 53%, the half-life [23] was 7.3 h and the bioavailability [24] was 119%. The CLint scaled [25] was 74 mL/min/kg, the clearance [26] was 41.3 mL/min/kg and the clearance [27] was 9.2 mL/min/kg. For the same compound, the Vd [28] was 4.6 L/kg, the half-life [29] was 5.5 h and the Vd [30] was 4.5 L/kg. For the same compound, the Vd [31] was 3.7 L/kg, the CLint scaled [32] was 529 mL/min/kg and the CLint scaled [33] was 72 mL/min/kg. The bioavailability [34] was 88% and the clearance [35] was 11.6 mL/min/kg.
